SMILES strings stand for the structures.

The first experiment has as its system HIV-1 (H9IIIB strain). Description: Cell-based HIV infection assay using a reporter (Cell-Based), MT4-GFP cells. To be noted: Human immunodeficiency virus 1, MT4-GFP cells infected with HIV-1 H9IIIB; 50% normal human serum; mean of at least two independent experiments; read-out: Cell-based IP. The essentials: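 MT4-GFP cells (HIV LTR-driven GFP) infected 24 h with HIV-1 H9IIIB at low MOI, then washed and plated with compounds in RPMI + 50% normal human serum, 0.4% DMSO final. Green cells counted at 24 and 48 h; R0 = 48 h/24 h ratio, inhibition normalized to DMSO and triple-drug control; IC50 from 4-parameter fit.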
Regarding `COC(=O)N[C@H](C(=O)Nc1cccc(F)c1CC[C@H]1CNC[C@H](C)N1S(=O)(=O)c1ccccc1)C(c1cccc(F)c1)c1cccc(F)c1` [Example 100, 3-fluoro-N-(3-fluoro-2-{2-[(2S,6S)-6-methyl-1-(phenylsulfonyl)piperazin-2-yl]ethyl}phenyl)-β-(3-fluorophenyl)-Nα-(methoxycarbonyl)-L-phenylalaninamide], the IC50 worked out at 0.03 µM.
The same measure, in the same setting: as for `CC(=O)Nc1nc(C)c(S(=O)(=O)N2CCNC[C@@H]2CCc2c(F)cncc2NC(=O)C[C@@H](c2ccc(F)cc2)c2cc(F)cc(F)c2)s1` [Example 318, (3S)-N-(4-{2-[(2S)-1-{[2-(acetylamino)-4-methyl-1,3-thiazol-5-yl]sulfonyl}piperazin-2-yl]ethyl}-5-fluoropyridin-3-yl)-3-(3,5-difluorophenyl)-3-(4-fluorophenyl)propanamide], the figure is 0.097 µM; as for `C[C@H]1CNC[C@H](CCc2c(F)cncc2NC(=O)[C@@H](N)[C@@H](c2ccc(F)cc2)c2cc(F)cc(F)c2)N1S(=O)(=O)C1CC1` [Example 197, (BS)-N-(4-{2-[(2S,6S)-1-(cyclopropylsulfonyl)-6-methylpiperazin-2-yl]ethyl}-5-fluoropyridin-3-yl)-β-(3,5-difluorophenyl)-4-fluoro-L-phenylalaninamide], 0.018 µM; as for `COC(=O)N[C@H](C(=O)Nc1cccc(F)c1CC[C@H]1CNC[C@H](C)N1S(=O)(=O)C1CC1)[C@@H](c1ccc(Cl)cc1)c1cccc(F)c1` [Example 168, (βS)-4-chloro-N-(2-{2-[(2S,6S)-1-(cyclopropylsulfonyl)-6-methylpiperazin-2-yl]ethyl}-3-fluorophenyl)-β-(3-fluorophenyl)-Nα-(methoxycarbonyl)-L-phenylalaninamide], 0.019 µM.
The same measure, in the same setting: the value for `N[C@H](C(=O)N[C@@H]1CCCC[C@H]1CC[C@H]1CNCCN1S(=O)(=O)c1ccccc1)C(c1ccc(F)cc1)c1ccc(F)cc1` [Example 353, 4-fluoro-beta-(4-fluorophenyl)-N-[(1R,2S)-2-{2-[(2S)-1-(phenylsulfonyl)piperazin-2-yl]ethyl}cyclohexyl]-L-phenylalaninamide] was 0.54 µM; that for `COC(=O)N[C@H](C(=O)Nc1cccc(F)c1CC[C@H]1CNCC2(CC2)CN1S(=O)(=O)c1ccccc1)[C@@H](c1ccc(Cl)cc1)c1ccc(OC)nc1` [Example 19, Methyl ((1S,2S)-1-(4-chlorophenyl)-3-((3-fluoro-2-(2-((S)-5-phenylsulfonyl)-5,8-diazaspiro[2.6]nonan-6-yl)ethyl)phenylamino)-1-(6-methoxypyridin-3-yl)-3-oxopropan-2-yl)carbamate 2,2,2-trifluoroacetate] was 0.016 µM; that for `COc1ccc(S(=O)(=O)N2[C@@H](CCc3c(F)cccc3NC(=O)[C@@H](N)[C@@H](c3ccc(F)cc3)c3cc(F)cc(F)c3)CNC[C@H]2C)cc1` [Example 16, (βS)-β-(3,5-difluorophenyl)-4-fluoro-N-[3-fluoro-2-(2-{(2S,6R)-1-[(4-methoxyphenyl)sulfonyl]-6-methylpiperazin-2-yl}ethyl)phenyl]-L-phenylalaninamide] was 0.0054 µM.
The same measure, in the same setting: the value for `CC(C)[C@H](c1ccc(Cl)cc1)[C@H](N)C(=O)Nc1cccc(F)c1CC[C@H]1CNC[C@H](C)N1S(=O)(=O)c1ccccc1Cl` [Example 271, (βR)-4-chloro-N-[2-(2-{(2S,6S)-1-[(2-chlorophenyl)sulfonyl]-6-methylpiperazin-2-yl}ethyl)-3-fluorophenyl]-β-(1-methylethyl)-L-phenylalaninamide] was 1.2 µM; that for `C[C@H]1CNC[C@H](CCc2c(F)cccc2NC(=O)[C@@H](N)[C@@H](c2ccc(F)cc2)c2cc(F)cc(F)c2)N1S(=O)(=O)c1ccccc1Cl` [Example 229, (βS)-N-[2-(2-{(2S,6S)-1-[(2-chlorophenyl)sulfonyl]-6-methylpiperazin-2-yl}ethyl)-3-fluorophenyl]-β-(3,5-difluorophenyl)-4-fluoro-L-phenylalaninamide] was 0.35 µM.
With `O=C(C[C@@H](c1ccc(F)cc1)c1cc(F)cc(F)c1)Nc1cncc(F)c1CC[C@H]1CNCCN1S(=O)(=O)c1ccccn1` [Example 304, (3S)-3-(3,5-difluorophenyl)-3-(4-fluorophenyl)-N-(5-fluoro-4-{2-[(2S)-1-(pyridin-2-ylsulfonyl)piperazin-2-yl]ethyl}pyridin-3-yl)propanamide], the IC50 came out at 0.0036 µM.
In the case of `COC(=O)N[C@H](C(=O)Nc1cccc(F)c1CC[C@H]1CNC[C@H](C)N1S(C)(=O)=O)[C@@H](c1ccc(Cl)cc1)C1CCOCC1` [Example 139, (βR)-4-chloro-N-(3-fluoro-2-{2-[(2S,6S)-6-methyl-1-(methylsulfonyl)piperazin-2-yl]ethyl}phenyl)-Nα-(methoxycarbonyl)-β-(tetrahydro-2H-pyran-4-yl)-L-phenylalaninamide], the IC50 stood at 0.036 µM.
On to `CS(=O)(=O)c1ccc(S(=O)(=O)N2CCNC[C@@H]2CCc2c(F)cncc2NC(=O)C[C@@H](c2ccc(F)cc2)c2cc(F)cc(F)c2)cc1` [Example 313, (3S)-3-(3,5-difluorophenyl)-N-(5-fluoro-4-{2-[(2S)-1-{[4-(methylsulfonyl)phenyl]sulfonyl}piperazin-2-yl]ethyl}pyridin-3-yl)-3-(4-fluorophenyl)propanamide], for which the IC50 was determined as 0.048 µM.
Still for that read-out and setting: the value for `C[C@@H]1CNC[C@H](CCc2c(F)cccc2NC(=O)[C@@H](N)[C@@H](c2ccc(F)cc2)c2cc(F)cc(F)c2)N1S(=O)(=O)C1CC1` [Example 192, (βS)-N-(2-{2-[(2S,6R)-1-(cyclopropylsulfonyl)-6-methylpiperazin-2-yl]ethyl}-3-fluorophenyl)-β-(3,5-difluorophenyl)-4-fluoro-L-phenylalaninamide] was 0.036 µM.
The same measure, in the same setting: as for `COC(=O)N[C@H](C(=O)Nc1cccc(F)c1CC[C@H]1CNC[C@H](C)N1S(=O)(=O)c1ccc(OC(F)(F)F)cc1)[C@@H](c1ccc(F)cc1)c1cc(F)cc(F)c1` [Example 234, (βS)-β-(3,5-difluorophenyl)-4-fluoro-N-(3-fluoro-2-{2-[(2S,6S)-6-methyl-1-{[4-(trifluoromethoxy)phenyl]sulfonyl}piperazin-2-yl]ethyl}phenyl)-Nα-(methoxycarbonyl)-L-phenylalaninamide], the figure is 0.049 µM.
Same read-out and setting: the value for `C[C@H]1CNC[C@H](CCc2c(F)cncc2NC(=O)[C@@H](N)[C@@H](c2ccc(Cl)cc2)C2CCOCC2)N1S(=O)(=O)c1ccccc1` [Example 277, (βR)-4-chloro-N-(5-fluoro-4-{2-[(2S,6S)-6-methyl-1-(phenylsulfonyl)piperazin-2-yl]ethyl}pyridin-3-yl)-β-(tetrahydro-2H-pyran-4-yl)-L-phenylalaninamide] was 0.015 µM.
Turning to `C[C@@H]1CNC[C@H](CCc2c(F)cccc2NC(=O)[C@@H](N)[C@H](c2cccc(F)c2)c2cccc(Cl)c2)N1S(=O)(=O)C1CC1` [Example 203, (βR)-3-chloro-N-(2-{2-[(2S,6R)-1-(cyclopropylsulfonyl)-6-methylpiperazin-2-yl]ethyl}-3-fluorophenyl)-β-(3-fluorophenyl)-L-phenylalaninamide], the IC50 came out at 0.62 µM.

The same experiment, now with this note: MT4-GFP cells infected with HIV-1 H9IIIB; 50% normal human serum; mean of at least two independent experiments; read-out: Cell-based IP.
For `COC(=O)NC(C(=O)NC1CC(F)(F)CC1CC[C@H]1CNCCN1S(=O)(=O)c1ccccc1)C(c1ccc(F)cc1)c1ccc(F)cc1` (stereo in doubt) [Example 358, Methyl ((2R)-1-((4,4-difluoro-2-(2-((S)-1-(phenylsulfonyl)piperazin-2-yl)ethyl)cyclopentyl)amino)-3,3-bis(4-fluorophenyl)-1-oxopropan-2-yl)carbamate], the IC50 worked out at 0.16 µM.

The values are drawn from US9840478B2 (MERCK SHARP & DOHME CORP., priority 2013, dated 2017).
